From article PMC5218480 (PLoS ONE, 2017) come the findings set out here.

The assay deals with MV-4-11 cells. Nature of the assay: Gene expression microarray analysis (Affymetrix PrimeView) and GSEA. Type of assay: cell-based, human. Also noted: RFU PODN (11730768_x_at) / Fold change /veh PODN (11730768_x_at) / RFU LINC00158 (11744669_a_at) / Fold change /veh LINC00158 (11744669_a_at) / RFU DUSP10 (11751237_a_at) / Fold change /veh DUSP10 (11751237_a_at) / RFU ID3 (11757404_x_at) / Fold change /veh ID3 (11757404_x_at) / RFU PLEKHG5 (11737974_s_at) / Fold change /veh PLEKHG5 (11737974_s_at) / RFU LRRC4B (11730491_at) / Fold change /veh LRRC4B (11730491_at) / RFU GIMAP4 (11747438_a_at) / Fold change /veh GIMAP4 (11747438_a_at) / RFU KRT8 (11758183_x_at) / Fold change /veh KRT8 (11758183_x_at) / RFU CNN1 (11734310_a_at) / Fold change /veh CNN1 (11734310_a_at) / RFU VPS37D (11726825_at) / Fold change /veh VPS37D (11726825_at) / RFU C10orf10 (11716522_x_at) / Fold change /veh C10orf10 (11716522_x_at) / RFU KIR2DL2 /// KIR2DL4 /// KIR2DL5A /// KIR2DL5B /// KIR2DS1 /// KIR2DS2 /// KIR2DS3 /// KIR2DS4 /// KIR3DL3 /// KIR3DL3 /// KIR3DS1 (11738374_at) / Fold change /veh KIR2DL2 /// KIR2DL4 /// KIR2DL5A /// KIR2DL5B /// KIR2DS1 /// KIR2DS2 /// KIR2DS3 /// KIR2DS4 /// KIR3DL3 /// KIR3DL3 /// KIR3DS1 (11738374_at) / RFU C1QL1 (11718748_at) / Fold change /veh C1QL1 (11718748_at) / RFU TMPRSS4 (11747572_a_at) / Fold change /veh TMPRSS4 (11747572_a_at) / RFU HAMP (11756126_x_at) / Fold change /veh HAMP (11756126_x_at) / RFU RNFT2 (11725882_a_at) / Fold change /veh RNFT2 (11725882_a_at) / RFU NR4A2 (11747474_a_at) / Fold change /veh NR4A2 (11747474_a_at) / RFU ABCC12 (11746883_a_at) / Fold change /veh ABCC12 (11746883_a_at) / RFU TMEM136 (11760407_x_at) / Fold change /veh TMEM136 (11760407_x_at) / RFU CLDN22 /// WWC2 (11732394_at) / Fold change /veh CLDN22 /// WWC2 (11732394_at) / RFU HLA-DPB1 (11760878_x_at) / Fold change /veh HLA-DPB1 (11760878_x_at) / RFU SPINT1 (11716480_a_at) / Fold change /veh SPINT1 (11716480_a_at) / RFU GAP43 (11754022_s_at) / Fold change /veh GAP43 (11754022_s_at) / RFU A4GNT (11735810_at) / Fold change /veh A4GNT (11735810_at) / RFU PRB3 (11715151_x_at) / Fold change /veh PRB3 (11715151_x_at) / RFU TUBB4B (11761932_at) / Fold change /veh TUBB4B (11761932_at) / RFU CAPN14 (11732068_a_at) / Fold change /veh CAPN14 (11732068_a_at) / RFU TMCC2 (11721928_a_at) / Fold change /veh TMCC2 (11721928_a_at) / RFU IRGQ (11745062_a_at) / Fold change /veh IRGQ (11745062_a_at) / RFU FAM174B (11720279_a_at) / Fold change /veh FAM174B (11720279_a_at) / RFU TMPRSS4 (11748680_a_at) / Fold change /veh TMPRSS4 (11748680_a_at) / RFU FAM212B (11763350_a_at) / Fold change /veh FAM212B (11763350_a_at) / RFU PLEKHG5 (11743358_a_at) / Fold change /veh PLEKHG5 (11743358_a_at) / RFU ZSCAN30 (11745921_a_at) / Fold change /veh ZSCAN30 (11745921_a_at) / RFU CMKLR1 (11741424_a_at) / Fold change /veh CMKLR1 (11741424_a_at) / RFU LOC101060620 /// MAPK8IP1 (11723275_at) / Fold change /veh LOC101060620 /// MAPK8IP1 (11723275_at) / RFU SPTSSB (11747773_x_at) / Fold change /veh SPTSSB (11747773_x_at) / RFU PRSS12 (11739890_at) / Fold change /veh PRSS12 (11739890_at) / RFU BIN1 (11741810_x_at) / Fold change /veh BIN1 (11741810_x_at) / RFU WNT11 (11732464_a_at) / Fold change /veh WNT11 (11732464_a_at) / RFU C10orf10 (11716521_a_at) / Fold change /veh C10orf10 (11716521_a_at) / RFU C5orf56 (11738089_at) / Fold change /veh C5orf56 (11738089_at) / RFU CYB561 (11721691_x_at) / Fold change /veh CYB561 (11721691_x_at) / RFU ANKRD19P (11752326_a_at) / Fold change /veh ANKRD19P (11752326_a_at) / RFU OR2T12 /// OR2T33 /// OR2T8 (11738714_s_at) / Fold change /veh OR2T12 /// OR2T33 /// OR2T8 (11738714_s_at) / RFU VCAN (11748164_a_at) / Fold change /veh VCAN (11748164_a_at) / RFU JSRP1 (11732532_at) / Fold change /veh JSRP1 (11732532_at) / RFU KRTAP10-11 (11738290_x_at) / Fold change /veh KRTAP10-11 (11738290_x_at) / RFU MYO3A (11730013_a_at) / Fold change /veh MYO3A (11730013_a_at) / RFU EBF3 (11725865_a_at) / Fold change /veh EBF3 (11725865_a_at) / RFU CAMK2N1 (11719241_x_at) / Fold change /veh CAMK2N1 (11719241_x_at) / RFU C5orf56 (11738088_a_at) / Fold change /veh C5orf56 (11738088_a_at) / RFU OLFML3 (11715873_a_at) / Fold change /veh OLFML3 (11715873_a_at) / RFU LOC100653217 /// NTM (11731650_a_at) / Fold change /veh LOC100653217 /// NTM (11731650_a_at) / RFU MAPK11 (11762145_a_at) / Fold change /veh MAPK11 (11762145_a_at) / RFU FIZ1 (11724087_x_at) / Fold change /veh FIZ1 (11724087_x_at) / RFU OASL (11726364_x_at) / Fold change /veh OASL (11726364_x_at) / RFU SOX15 (11748057_x_at) / Fold change /veh SOX15 (11748057_x_at) / RFU CD79A (11719716_a_at) / Fold change /veh CD79A (11719716_a_at) / RFU HIST1H1D (11736915_at) / Fold change /veh HIST1H1D (11736915_at) / RFU CASKIN2 (11723855_a_at) / Fold change /veh CASKIN2 (11723855_a_at) / RFU LOC730098 (11760151_x_at) / Fold change /veh LOC730098 (11760151_x_at) / RFU OR4N2 (11742367_at) / Fold change /veh OR4N2 (11742367_at) / RFU PRRT2 (11749266_a_at) / Fold change /veh PRRT2 (11749266_a_at) / RFU SNX32 (11753110_a_at) / Fold change /veh SNX32 (11753110_a_at) / RFU CDHR5 (11726645_a_at) / Fold change /veh CDHR5 (11726645_a_at) / RFU RCAN1 (11760418_a_at) / Fold change /veh RCAN1 (11760418_a_at) / RFU FAM167A (11723789_a_at) / Fold change /veh FAM167A (11723789_a_at) / RFU FAM26E (11764081_at) / Fold change /veh FAM26E (11764081_at) / RFU ISYNA1 (11749810_s_at) / Fold change /veh ISYNA1 (11749810_s_at) / RFU ACY1 (11761880_at) / Fold change /veh ACY1 (11761880_at) / RFU 11764098_at / Fold change /veh 11764098_at / RFU SAMD14 (11745864_x_at) / Fold change /veh SAMD14 (11745864_x_at) / RFU NPB (11741838_a_at) / Fold change /veh NPB (11741838_a_at) / RFU TMPRSS6 (11731388_a_at) / Fold change /veh TMPRSS6 (11731388_a_at) / RFU KRTAP10-2 (11738614_at) / Fold change /veh KRTAP10-2 (11738614_at) / RFU ARHGAP8 /// PRR5-ARHGAP8 (11727945_x_at) / Fold change /veh ARHGAP8 /// PRR5-ARHGAP8 (11727945_x_at) / RFU KRTAP5-7 /// NADSYN1 (11734609_at) / Fold change /veh KRTAP5-7 /// NADSYN1 (11734609_at) / RFU RASL12 (11751679_a_at) / Fold change /veh RASL12 (11751679_a_at) / RFU CDKN2B (11736163_a_at) / Fold change /veh CDKN2B (11736163_a_at) / RFU PRF1 (11729649_at) / Fold change /veh PRF1 (11729649_at) / RFU, ZNF638 /// ZNF638-IT1 / Fold change vs veh, ZNF638 /// ZNF638-IT1 / RFU, PANK3 / Fold change vs veh, PANK3 / RFU, SH3YL1 / Fold change vs veh, SH3YL1 / RFU, ZEB2 / Fold change vs veh, ZEB2 / RFU, NRIP1 / Fold change vs veh, NRIP1 / RFU, PTTG1IP / Fold change vs veh, PTTG1IP / RFU, CAPN2 / Fold change vs veh, CAPN2 / RFU, MED14 / Fold change vs veh, MED14 / RFU, SNORA58 / Fold change vs veh, SNORA58 / RFU, C1orf63 / Fold change vs veh, C1orf63 / RFU, LRRFIP1 / Fold change vs veh, LRRFIP1 / RFU, NDUFAF7 / Fold change vs veh, NDUFAF7 / RFU, SLC12A2 / Fold change vs veh, SLC12A2 / RFU, IBTK / Fold change vs veh, IBTK / RFU, ESF1 / Fold change vs veh, ESF1 / Fold change vs veh, TMEM50B / RFU, TAOK1 / Fold change vs veh, TAOK1 / RFU, ACBD3 / Fold change vs veh, ACBD3 / RFU, TMA16 / Fold change vs veh, TMA16 / RFU, RWDD3 / Fold change vs veh, RWDD3 / RFU, BCAT1 / Fold change vs veh, BCAT1 / RFU, EDEM3 / Fold change vs veh, EDEM3 / RFU, TMEM33 / Fold change vs veh, TMEM33 / RFU, WDR75 / Fold change vs veh, WDR75 / RFU, AHCTF1 / Fold change vs veh, AHCTF1 / RFU, TFRC / Fold change vs veh, TFRC / RFU, ZDHHC17 / Fold change vs veh, ZDHHC17 / RFU, NOM1 / Fold change vs veh, NOM1 / RFU, ARL8B / Fold change vs veh, ARL8B / RFU, ZBTB11 / Fold change vs veh, ZBTB11 / RFU, TAMM41 / Fold change vs veh, TAMM41 / RFU, KIAA1704 /// LOC100996395 / Fold change vs veh, KIAA1704 /// LOC100996395 / RFU, ING1 / Fold change vs veh, ING1 / RFU, TRMT61B / Fold change vs veh, TRMT61B / RFU, FUBP3 / Fold change vs veh, FUBP3 / RFU, TP53 / Fold change vs veh, TP53 / RFU, TNKS2 / Fold change vs veh, TNKS2 / RFU, ZFP14 / Fold change vs veh, ZFP14 / RFU, ACTR2 / Fold change vs veh, ACTR2 / RFU, PPP3R1 / Fold change vs veh, PPP3R1 / RFU, PIK3R1 / Fold change vs veh, PIK3R1 / RFU, HNRNPA1 / Fold change vs veh, HNRNPA1 / RFU, RNF170 / Fold change vs veh, RNF170 / RFU, ZNF28 / Fold change vs veh, ZNF28 / RFU, RNGTT / Fold change vs veh, RNGTT / RFU, OGT / Fold change vs veh, OGT / RFU, BRD1 / Fold change vs veh, BRD1 / RFU, MARS / Fold change vs veh, MARS / RFU, ZNF655 / Fold change vs veh, ZNF655 / RFU, FAHD1 / Fold change vs veh, FAHD1 / RFU, BDP1 / Fold change vs veh, BDP1 / RFU, LRRCC1 / Fold change vs veh, LRRCC1 / RFU, ARID1A / Fold change vs veh, ARID1A / RFU, ZNF146 / Fold change vs veh, ZNF146 / RFU, ZNF330 / Fold change vs veh, ZNF330 / RFU, GPN3 / Fold change vs veh, GPN3 / RFU, C9orf123 / Fold change vs veh, C9orf123 / RFU, N4BP2L2 / Fold change vs veh, N4BP2L2 / RFU, ARFIP1 / Fold change vs veh, ARFIP1 / RFU, FAM179B / Fold change vs veh, FAM179B / RFU, BCL10 / Fold change vs veh, BCL10 / RFU, UHRF1BP1L / Fold change vs veh, UHRF1BP1L / RFU, BET1 / Fold change vs veh, BET1 / RFU, CNOT2 / Fold change vs veh, CNOT2 / RFU, ZNF268 / Fold change vs veh, ZNF268 / Fold change vs veh, ZNF507 / RFU, DGCR2 / Fold change vs veh, DGCR2 / RFU, WDSUB1 / Fold change vs veh, WDSUB1 / Fold change vs veh, HSP90B1 /// MIR3652 / RFU, ADSS / Fold change vs veh, ADSS / RFU, GK / Fold change vs veh, GK / RFU, ZNF148 / Fold change vs veh, ZNF148 / RFU, TAF9 / Fold change vs veh, TAF9 / RFU, SLC1A5 / Fold change vs veh, SLC1A5 / RFU, SLMO2 / Fold change vs veh, SLMO2 / RFU, ABCC4 / Fold change vs veh, ABCC4 / RFU, LOC101060439 /// RAP1B / Fold change vs veh, LOC101060439 /// RAP1B / RFU, RFX7 / Fold change vs veh, RFX7 / RFU, GTPBP10 / Fold change vs veh, GTPBP10 / RFU, CNEP1R1 / Fold change vs veh, CNEP1R1 / RFU, BIVM-ERCC5 /// ERCC5 / Fold change vs veh, BIVM-ERCC5 /// ERCC5 / RFU, ILF3 / Fold change vs veh, ILF3 / RFU 11762660_at / Fold change /veh 11762660_at / RFU VCAN (11757783_s_at) / Fold change /veh VCAN (11757783_s_at) / RFU DDX43 (11728927_at) / Fold change /veh DDX43 (11728927_at) / RFU KRT8 (11758188_x_at) / Fold change /veh KRT8 (11758188_x_at) / RFU NKD1 (11759106_at) / Fold change /veh NKD1 (11759106_at) / RFU SRD5A1 (11742802_a_at) / Fold change /veh SRD5A1 (11742802_a_at) / RFU TPSAB1 /// TPSB2 (11721975_s_at) / Fold change /veh TPSAB1 /// TPSB2 (11721975_s_at) / RFU GSTM3 (11746129_a_at) / Fold change /veh GSTM3 (11746129_a_at) / RFU IL23R (11737362_x_at) / Fold change /veh IL23R (11737362_x_at) / RFU TMEM51 (11727254_a_at) / Fold change /veh TMEM51 (11727254_a_at) / RFU PIWIL2 (11732686_x_at) / Fold change /veh PIWIL2 (11732686_x_at) / RFU ORM1 (11744905_x_at) / Fold change /veh ORM1 (11744905_x_at) / RFU CCDC152 (11743942_at) / Fold change /veh CCDC152 (11743942_at) / RFU ECM1 (11717891_a_at) / Fold change /veh ECM1 (11717891_a_at) / RFU IL23R (11748794_a_at) / Fold change /veh IL23R (11748794_a_at) / RFU TNFAIP8L3 (11732012_x_at) / Fold change /veh TNFAIP8L3 (11732012_x_at) / RFU MBOAT4 (11741988_at) / Fold change /veh MBOAT4 (11741988_at) / RFU 11764193_at / Fold change /veh 11764193_at / RFU TMEM53 (11763286_at) / Fold change /veh TMEM53 (11763286_at) / RFU MAGEB2 (11727129_at) / Fold change /veh MAGEB2 (11727129_at) / RFU TMEM200A (11744735_a_at) / Fold change /veh TMEM200A (11744735_a_at) / RFU CCDC152 (11751479_a_at) / Fold change /veh CCDC152 (11751479_a_at) / RFU FAM211A (11726209_a_at) / Fold change /veh FAM211A (11726209_a_at) / RFU RGS16 (11746705_a_at) / Fold change /veh RGS16 (11746705_a_at) / RFU VCAN (11755009_s_at) / Fold change /veh VCAN (11755009_s_at) / RFU RHOB (11743442_s_at) / Fold change /veh RHOB (11743442_s_at) / RFU RGS16 (11720943_a_at) / Fold change /veh RGS16 (11720943_a_at) / RFU RGS16 (11720944_at) / Fold change /veh RGS16 (11720944_at) / RFU, VPS4B / Fold change vs veh, VPS4B / RFU, CREB1 / Fold change vs veh, CREB1 / RFU, DNAJC13 / Fold change vs veh, DNAJC13 / RFU, GNAQ / Fold change vs veh, GNAQ / RFU, CDK5R1 / Fold change vs veh, CDK5R1 / RFU, ZRANB3 / Fold change vs veh, ZRANB3 / RFU, CUL4A / Fold change vs veh, CUL4A / RFU, CCNY / Fold change vs veh, CCNY / RFU, UFL1 / Fold change vs veh, UFL1 / RFU, COG3 / Fold change vs veh, COG3 / RFU, DIAPH2 / Fold change vs veh, DIAPH2 / RFU, SKA2 / Fold change vs veh, SKA2 / RFU, AFF3 / Fold change vs veh, AFF3 / RFU, LMF1 / Fold change vs veh, LMF1 / RFU, IPO11 / Fold change vs veh, IPO11 / RFU, DFFB / Fold change vs veh, DFFB / RFU, FOXP1 / Fold change vs veh, FOXP1 / RFU, CARD8 / Fold change vs veh, CARD8 / RFU, STRN3 / Fold change vs veh, STRN3 / RFU, ADK / Fold change vs veh, ADK / RFU, RASSF2 / Fold change vs veh, RASSF2 / RFU, WIPF1 / Fold change vs veh, WIPF1 / RFU, LARP1B / Fold change vs veh, LARP1B / RFU, RASA1 / Fold change vs veh, RASA1 / RFU, RB1 / Fold change vs veh, RB1 / RFU, PPFIA1 / Fold change vs veh, PPFIA1 / RFU, MAT2A / Fold change vs veh, MAT2A / RFU, CCT5 / Fold change vs veh, CCT5 / RFU, WDR92 / Fold change vs veh, WDR92 / RFU, CUX1 / Fold change vs veh, CUX1 / RFU, TTC7A / Fold change vs veh, TTC7A / RFU, TMEM135 / Fold change vs veh, TMEM135 / RFU, DEPTOR / Fold change vs veh, DEPTOR / RFU, CPM / Fold change vs veh, CPM / RFU, DNAJB6 / Fold change vs veh, DNAJB6 / RFU, CACNA2D3 / Fold change vs veh, CACNA2D3 / RFU, DTX4 / Fold change vs veh, DTX4 / RFU, TFCP2 / Fold change vs veh, TFCP2 / RFU, GMCL1 /// GMCL1P1 / Fold change vs veh, GMCL1 /// GMCL1P1 / RFU, AEBP2 / Fold change vs veh, AEBP2 / RFU, SNHG1 /// SNORD22 /// SNORD25 /// SNORD26 /// SNORD27 /// SNORD28 /// SNORD29 /// SNORD31 / Fold change vs veh, SNHG1 /// SNORD22 /// SNORD25 /// SNORD26 /// SNORD27 /// SNORD28 /// SNORD29 /// SNORD31 / Fold change (Aza/veh), C12orf56 (ProbeSet 11735607_a_at) / Fold change (ACY-1035/veh), C12orf56 (ProbeSet 11735607_a_at) / Fold change (Aza/veh), FGFR1OP (ProbeSet 11751329_s_at) / Fold change (ACY-1035/veh), FGFR1OP (ProbeSet 11751329_s_at) / Fold change (Aza/veh), VPS36 (ProbeSet 11739960_a_at) / Fold change (ACY-1035/veh), VPS36 (ProbeSet 11739960_a_at) / RFU SYPL1 (11715823_x_at) / Fold change /veh SYPL1 (11715823_x_at) / RFU IGFBP7 (11715501_s_at) / Fold change /veh IGFBP7 (11715501_s_at) / RFU REEP3 (11722064_at) / Fold change /veh REEP3 (11722064_at) / RFU IGLL1 (11728026_x_at) / Fold change /veh IGLL1 (11728026_x_at): dose or concentration left out as unconfirmed. The conditions noted are these: ProbeSet 11749477_a_at; LIST B.

Consider `Nc1ncn([C@@H]2O[C@H](CO)[C@@H](O)[C@H]2O)c(=O)n1` [azacitidine], for which the “RFU, EDEM3” value came to 49.32 RFU.
